# Measurements reported in patent EP0292365A2, “4-Amino-5,8-quinazolindione derivatives, process for their preparation and pharmaceutical compositions containing them” (CENTRE NATIONAL DE LA RECHERCHE SCIENTIFIQUE, priority 1987, dated 1988).
# Key:
# cellules MCF-7 = assay: Effect on cell cycle phases, MCF-7 line; type: cell-based, humaine; settings: summary of tableau D
# Description: Les cellules tumorales en croissance exponentielle sont ensemencées (10.000 cellules/ml) dans des boîtes à Petri contenant au fond de la boîte un couvre-objet (18 x 18 mm) et 3 ml de MEM (MEM = milieu essentiel minimum) + 5 % FCS (FCS = serum de veau fetal) (v/v). Après 24 heures d'incubation, quand les cellules sont bien attachées au fond de la boîte, le milieu est remplacé par MEM expérimental contenant 5 % FCS (v/v) et enrichi, par exemple de : • a) 3 ml du milieu (MEM + 5 % FCS) = témoins • b) 3 ml du milieu contenant une dose élevée du composé à tester : 10 µg/ml : (M) • c) milieu contenant une faible dose du composé à tester : 0.01 µg/ml (f) respectivement aux jours 1, 2, 3 et 4 après addition du milieu expérimental dans les boîtes de Petri. Trois couvre-objets sont fixés pour chaque condition expérimentale : éthanol 95° (75 v), formol neutre à 40 % (20 v), acide acétique (5 v), pendant 10 minutes. Les cellules témoins cultivées dans le milieu expérimental sans le produit à tester sont fixées au même moment. A la fin de la fixation, les couvre-objets sont retournés et montés sur des lames histologiques à l'aide de produit commercialisé sous la marque DPX par la Société British Drug House et conservés à l'abri de la lumière et à 4° en attendant d'être colorés.
# Les lames avec les couvre-objets sont colorées par une réaction de Feulgen modifiée. […]
# réticulosarcome M 5076 = assay: First trials on reticulosarcoma M 5076; type: in vivo; settings: souris; doses infratoxique; premiers essais
# Mélanome B16 = type: in vivo, souris BDF1
# From the text: Afin de tester l'activité antitumorale des composés décrits plus haut, on a utilisé les leucémies murines P388 et L1210, ainsi que le mélanome murin B16. La leucémie P388 est considère comme très sensible et permet une première sélection. D'autre part, une substance ayant une grande activité sur la leucémie L1210 a une grande chance d'être active en clinique humaine (J.M. Venditti; Relevance of transplantable animal tumor systems to the Selection of new agents for clinical trial in pharmacological basis of cancer chemotherapy. The University of Texas ed. Williams and Wilkins, publ. 1975, Baltimore USA).
# Cette étude a été réalisée sur 1, 2 ou 3 tumeurs murines expérimentales selon le schéma suivant :
# Les produits en solution dans l'eau ou en suspension dans du Klucel sont administrés par voie intrapéritonéale 24 heures après la greffe des cellules tumorales (10 animaux par série), soit en injection unique (J1), soit pendant 9 jours consécutifs (Ji-9). Les morts sont relevés chaque jour à la même heure. La comparaison du temps médian de survie des souris témoins (C) et des souris traitées (T) permet d'apprécier l'activité antitumorale du produit. On adopte comme critère d'activité minimale la valeur de T/C supérieure ou égale à 125 % conformément aux critères établis par GERAN et par l'O.M.S. (Réf. GERAN R.I., GREENBERG N.H., MACDONALD M.M., SCHUMACHER A.M. and ABBOTT B.J. Protocols for screening chemical agents and natural products against animal tumors and other biological systems. Cancer Chemother. Rep. Part 3, 3, 1-103 (1972)).
# Lorsque le composé est actif sur plusieurs tumeurs, son administration par d'autres voies que la voie intrapéritonéale (i.p.) est envisagée : orale (p.o) et intraveineuse (i.v). Les résultats des essais effectués à l'aide du composé 63 sont rassemblés dans le tableau IV ci-après.
# Dans les tableaux IV et IV Bis, P représentent la variation de poids entre J1 et J5 des animaux traités; lorsque P est supérieure à environ 4 g, cela signifie que la dose à laquelle le composé a été testé est toxique.
# [1] = B16, greffe ip(susp. au 1/10), ip J1-9, dose optimale 0,2 mg/kg/inj.
structure (smiles),measurement,setting,value
CN(C)CCCNc1ncnc2c1C(=O)C(N1CC1)=C(N1CC1)C2=O [composé 63],effet sur le cycle cellulaire (MCF-7),cellules MCF-7,bloque les cellules en phase S
same,activité sur le réticulosarcome M 5076,réticulosarcome M 5076,nette activité
same,survivants 60 jours,Mélanome B16; [1],2
same,Δ P J1-J5,Mélanome B16; [1],0 g
same,T/C,"Mélanome B16; B16, greffe ip(susp. au 1/10), ip J1-9, dose optimale 0,2 mg/kg/inj., survivants inclus",192%
same,Doses actives (T/C ≥ 125 %),"Mélanome B16; B16, greffe ip(susp. au 1/10), traitement ip J1-9","0,05-0,8 mg/kg/inj."
same,activité sur le mélanome B16,Mélanome B16; summary,très efficace
